Test results as given in PubChem BioAssay AID256 (DTP/NCI, 2004).
Toxic doses and inconclusive results are not listed. Rule for the calls: active = survival T/C of 150% or more; inactive = T/C below 125% in these data.

Test system: CD2F1 mice, L1210 leukemia ip, survival T/C
Assay: NCI In Vivo Anticancer Drug Screen. Data for tumor model L1210 Leukemia (intraperitoneal) in CD2F1 (CDF1) mice
Details: endpoint: mean survival time, higher = longer survival
In short: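 In this screen, transplantable tumors were grown in mice given either the compound or its vehicle. Results were expressed as the treated measurement relative to the control measurement.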

[1] = dose: 100.0 mg/kg/injection, schedule: Q01DX001 (ip), vehicle: saline
[2] = dose: 200.0 mg/kg/injection, schedule: Q01DX001 (ip), vehicle: saline

Measured: T/C

Cc1nc(N)c2ncn(C3OC(CO)C(O)C3O)c2n1 (stereo not given)
inactive: dose: 100.0 mg/kg/injection, schedule: Q04DX002 (ip), vehicle: saline with Tween-80 115 % of control

CCCCC(Sc1nn(C2OC(COC(=O)c3ccccc3)C(OC(=O)c3ccccc3)C2OC(=O)c2ccccc2)c(=O)[nH]c1=O)C(=O)OCC (stereo not given)
inactive: dose: 12.5 mg/kg/injection, schedule: Q01DX005 (ip), vehicle: distilled water + Tween-80 101 % of control | dose: 25.0 mg/kg/injection, schedule: Q01DX005 (ip), vehicle: distilled water + Tween-80 95 % of control | dose: 50.0 mg/kg/injection, schedule: Q01DX005 (ip), vehicle: distilled water + Tween-80 97 % of control | dose: 100.0 mg/kg/injection, schedule: Q01DX005 (ip), vehicle: distilled water + Tween-80 95 % of control | dose: 200.0 mg/kg/injection, schedule: Q01DX005 (ip), vehicle: distilled water + Tween-80 94 % of control

CCOC(=O)C(C(=O)OCC)C(C)C
inactive: [1] 97 % of control | [2] 97 % of control | dose: 400.0 mg/kg/injection, schedule: Q01DX001 (ip), vehicle: saline 110 % of control

S=C(NNc1ccccc1)NC1CCCCC1
inactive: dose: 25.0 mg/kg/injection, schedule: Q01DX009 (ip), vehicle: acetone 96 % of control | dose: 50.0 mg/kg/injection, schedule: Q01DX009 (ip), vehicle: acetone 100 % of control | dose: 100.0 mg/kg/injection, schedule: Q01DX009 (ip), vehicle: acetone 96 % of control

CSc1nc(N)c(N=O)c(=O)[nH]1
inactive: dose: 100.0 mg/kg/injection, schedule: Q01DX001 (ip), vehicle: Klucel (hydroxypropylcellulose) (HPC) 98 % of control | dose: 200.0 mg/kg/injection, schedule: Q01DX001 (ip), vehicle: Klucel (hydroxypropylcellulose) (HPC) 100 % of control | dose: 400.0 mg/kg/injection, schedule: Q01DX001 (ip), vehicle: Klucel (hydroxypropylcellulose) (HPC) 109 % of control

N#CSCCOCCSC#N
inactive: dose: 2.5 mg/kg/injection, schedule: Q04DX003 (ip), vehicle: saline with Tween-80 100 % of control | dose: 5.0 mg/kg/injection, schedule: Q04DX003 (ip), vehicle: saline with Tween-80 96 % of control

c1ccc(CSc2ncnc3nc[nH]c23)nc1
inactive: dose: 133.0 mg/kg/injection, schedule: Q04DX003 (ip), vehicle: saline with Tween-80 117 % of control | dose: 300.0 mg/kg/injection, schedule: Q04DX003 (ip), vehicle: saline with Tween-80 102 % of control

C#CC(O)CCC (stereo not given)
inactive: [1] 97 % of control | [2] 97 % of control

Cc1ccc(NC(=O)OCCOc2ccccc2Cl)cc1C
inactive: dose: 50.0 mg/kg/injection, schedule: Q01DX009 (ip), vehicle: saline with Tween-80 96 % of control | dose: 100.0 mg/kg/injection, schedule: Q01DX009 (ip), vehicle: saline with Tween-80 93 % of control | dose: 200.0 mg/kg/injection, schedule: Q01DX009 (ip), vehicle: saline with Tween-80 93 % of control

CCCC(=O)Nc1ncnc2c1nc(SCc1ccccc1)n2C1OC2COP(=O)(O)OC2C1OC(=O)CCC (stereo not given)
inactive: dose: 6.25 mg/kg/injection, schedule: Q01DX005 (ip), vehicle: water 101 % of control | dose: 12.5 mg/kg/injection, schedule: Q01DX005 (ip), vehicle: water 93 % of control | dose: 25.0 mg/kg/injection, schedule: Q01DX005 (ip), vehicle: water 93 % of control | dose: 50.0 mg/kg/injection, schedule: Q01DX005 (ip), vehicle: water 101 % of control | dose: 100.0 mg/kg/injection, schedule: Q01DX005 (ip), vehicle: water 101 % of control

CCCCn1ccnc1C
inactive: dose: 6.25 mg/kg/injection, schedule: Q01DX009 (ip), vehicle: saline 102 % of control | dose: 6.25 mg/kg/injection, schedule: Q04DX003 (ip), vehicle: saline 94 % of control | dose: 12.5 mg/kg/injection, schedule: Q01DX009 (ip), vehicle: saline 103 % of control | dose: 12.5 mg/kg/injection, schedule: Q04DX003 (ip), vehicle: saline 94 % of control | dose: 25.0 mg/kg/injection, schedule: Q01DX009 (ip), vehicle: saline 103 % of control | dose: 25.0 mg/kg/injection, schedule: Q04DX003 (ip), vehicle: saline 94 % of control
